Key:
corn = experiment: Test B pre/postemergence corn; assay type: in vivo, Zea mays
How it was run: (§1)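 Test chemicals in a non-phytotoxic solvent mixture with surfactant were sprayed preemergence onto planted seeds and postemergence onto plants 2 to 18 cm tall (1- to 4-leaf stage). After twelve to sixteen days in a greenhouse, injury was visually rated against untreated controls from 0 (no effect) to 10 (complete control).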

purple nutsedge = experiment: Test B pre/postemergence purple nutsedge; assay type: in vivo, Cyperus rotundus
How it was run: as §1

rape = experiment: Test B pre/postemergence rape; assay type: in vivo, Brassica napus
How it was run: as §1

wheat = experiment: Test B pre/postemergence wheat; assay type: in vivo, Triticum aestivum
How it was run: as §1

wild oat = experiment: Test B pre/postemergence wild oat; assay type: in vivo, Avena fatua
How it was run: as §1

crabgrass = experiment: Test B pre/postemergence crabgrass; assay type: in vivo, Digitaria sanguinalis
How it was run: as §1

blackgrass = experiment: Test B pre/postemergence blackgrass; assay type: in vivo, Alopecurus myosuroides
How it was run: as §1

surinam grass = experiment: Test B pre/postemergence surinam grass; assay type: in vivo, Brachiaria decumbens
How it was run: as §1

sugar beet = experiment: Test B pre/postemergence sugar beet; assay type: in vivo, Beta vulgaris
How it was run: as §1

cocklebur = experiment: Test B pre/postemergence cocklebur; assay type: in vivo, Xanthium strumarium
How it was run: as §1

giant foxtail = experiment: Test B pre/postemergence giant foxtail; assay type: in vivo, Setaria faberii
How it was run: as §1

soybean = experiment: Test B pre/postemergence soybean; assay type: in vivo, Glycine max
How it was run: as §1

velvetleaf = experiment: Test B pre/postemergence velvetleaf; assay type: in vivo, Abutilon theophrasti
How it was run: as §1

morningglory = experiment: Test B pre/postemergence morningglory; assay type: in vivo, Ipomoea hederacea
How it was run: as §1

[1] = Postemergence, Rate 125 g/ha, scale of 0 to 10 where 0 is no effect and 10 is complete control
[2] = Preemergence, Rate 62 g/ha, scale 0 to 10 (0 no effect, 10 complete control)
[3] = Preemergence, Rate 125 g/ha, 0 is no effect, 10 is complete control
[4] = Preemergence, Rate 250 g/ha, scale 0 to 10, 0 is no effect, 10 is complete control
[5] = Preemergence, Rate 500 g/ha, scale 0 to 10 (0 no effect, 10 complete control)
[6] = Rate 62 g/ha, Postemergence, scale of 0 to 10 where 0 is no effect and 10 is complete control
[7] = Rate 250 g/ha, Postemergence, scale 0 to 10, 0 is no effect, 10 is complete control
[8] = Rate 500 g/ha, Postemergence, scale 0 to 10

SMILES: Cc1ccc(N(C(=O)n2oc(=O)n(C(C)C)c2=O)C(C)C)cc1 [Compound 132]
- Corn plant response rating (corn; [1]): 0
- Corn plant response rating (corn; [2]): 0
- Corn plant response rating (0 to 10 scale) (corn; [3]): 0
- Corn plant response rating (corn; [4]): 7
- Corn plant response rating (corn; [5]): 8
- Corn plant response rating (corn; [6]): 0
- Plant response rating, Corn (corn; [7]): 4
- Corn plant response rating (corn; [8]): 6
- Nutsedge plant response rating (purple nutsedge; [1]): 2
- Nutsedge plant response rating (purple nutsedge; [2]): 0
- Nutsedge plant response rating (0 to 10 scale) (purple nutsedge; [3]): 0
- Nutsedge plant response rating (purple nutsedge; [4]): 0
- Nutsedge plant response rating (purple nutsedge; [5]): 9
- Nutsedge plant response rating (purple nutsedge; [6]): 0
- Plant response rating, Nutsedge (purple nutsedge; [7]): 3
- Nutsedge plant response rating (purple nutsedge; [8]): 4
- Rape plant response rating (rape; [1]): 0
- Rape plant response rating (rape; [2]): 0
- Rape plant response rating (0 to 10 scale) (rape; [3]): 0
- Rape plant response rating (rape; [4]): 0
- Rape plant response rating (rape; [5]): 8
- Rape plant response rating (rape; [6]): 0
- Plant response rating, Rape (rape; [7]): 0
- Rape plant response rating (rape; [8]): 0
- Wheat plant response rating (wheat; [1]): 2
- Wheat plant response rating (wheat; [2]): 0
- Wheat plant response rating (0 to 10 scale) (wheat; [3]): 0
- Wheat plant response rating (wheat; [4]): 2
- Wheat plant response rating (wheat; [5]): 4
- Wheat plant response rating (wheat; [6]): 0
- Plant response rating, Wheat (wheat; [7]): 2
- Wheat plant response rating (wheat; [8]): 6
- Wild oats plant response rating (wild oat; [1]): 2
- Wild oats plant response rating (wild oat; [2]): 3
- Wild oats plant response rating (0 to 10 scale) (wild oat; [3]): 5
- Wild oats plant response rating (wild oat; [4]): 8
- Wild oats plant response rating (wild oat; [5]): 9
- Wild oats plant response rating (wild oat; [6]): 0
- Plant response rating, Wild oats (wild oat; [7]): 2
- Wild oats plant response rating (wild oat; [8]): 3
- Crabgrass plant response rating (crabgrass; [1]): 7
- Crabgrass plant response rating (crabgrass; [2]): 7
- Crabgrass plant response rating (0 to 10 scale) (crabgrass; [3]): 7
- Crabgrass plant response rating (crabgrass; [4]): 9
- Crabgrass plant response rating (crabgrass; [5]): 9
- Crabgrass plant response rating (crabgrass; [6]): 5
- Plant response rating, Crabgrass (crabgrass; [7]): 8
- Crabgrass plant response rating (crabgrass; [8]): 9
- Blackgrass plant response rating (blackgrass; [1]): 2
- Blackgrass plant response rating (blackgrass; [2]): 3
- Blackgrass plant response rating (0 to 10 scale) (blackgrass; [3]): 6
- Blackgrass plant response rating (blackgrass; [4]): 9
- Blackgrass plant response rating (blackgrass; [5]): 10
- Blackgrass plant response rating (blackgrass; [6]): 0
- Plant response rating, Blackgrass (blackgrass; [7]): 8
- Blackgrass plant response rating (blackgrass; [8]): 9
- B. signalgrass plant response rating (surinam grass; [1]): 3
- B. signalgrass plant response rating (surinam grass; [2]): 0
- B. signalgrass plant response rating (0 to 10 scale) (surinam grass; [3]): 3
- B. signalgrass plant response rating (surinam grass; [4]): 7
- B. signalgrass plant response rating (surinam grass; [5]): 9
- B. signalgrass plant response rating (surinam grass; [6]): 0
- Plant response rating, B. signalgrass (surinam grass; [7]): 4
- B. signalgrass plant response rating (surinam grass; Rate 500 g/ha, Postemergence, scale of 0 to 10 where 0 is no effect and 10 is complete control): 7
- Sugarbeets plant response rating (sugar beet; [1]): 0
- Sugarbeets plant response rating (sugar beet; [2]): 2
- Sugarbeets plant response rating (0 to 10 scale) (sugar beet; [3]): 5
- Sugarbeets plant response rating (sugar beet; [4]): 6
- Sugarbeets plant response rating (sugar beet; [5]): 8
- Sugarbeets plant response rating (sugar beet; [6]): 0
- Plant response rating, Sugarbeets (sugar beet; [7]): 0
- Sugarbeets plant response rating (sugar beet; [8]): 2
- Cocklebur plant response rating (cocklebur; [1]): 0
- Cocklebur plant response rating (cocklebur; [2]): 0
- Cocklebur plant response rating (0 to 10 scale) (cocklebur; [3]): 0
- Cocklebur plant response rating (cocklebur; [5]): 0
- Cocklebur plant response rating (cocklebur; [6]): 0
- Plant response rating, Cocklebur (cocklebur; [7]): 0
- Cocklebur plant response rating (cocklebur; [8]): 0
- Giant foxtail plant response rating (giant foxtail; [1]): 9
- Giant foxtail plant response rating (giant foxtail; [2]): 8
- Giant foxtail plant response rating (0 to 10 scale) (giant foxtail; [3]): 8
- Giant foxtail plant response rating (giant foxtail; [4]): 9
- Giant foxtail plant response rating (giant foxtail; [5]): 10
- Giant foxtail plant response rating (giant foxtail; [6]): 8
- Plant response rating, Giant foxtail (giant foxtail; [7]): 9
- Giant foxtail plant response rating (giant foxtail; [8]): 9
- Soybean plant response rating (soybean; [1]): 3
- Soybean plant response rating (soybean; [2]): 0
- Soybean plant response rating (0 to 10 scale) (soybean; [3]): 0
- Soybean plant response rating (soybean; [4]): 2
- Soybean plant response rating (soybean; [5]): 4
- Soybean plant response rating (soybean; [6]): 3
- Plant response rating, Soybean (soybean; [7]): 4
- Soybean plant response rating (soybean; [8]): 6
- Velvetleaf plant response rating (velvetleaf; [1]): 2
- Velvetleaf plant response rating (velvetleaf; [2]): 3
- Velvetleaf plant response rating (0 to 10 scale) (velvetleaf; [3]): 4
- Velvetleaf plant response rating (velvetleaf; [4]): 6
- Velvetleaf plant response rating (velvetleaf; [5]): 10
- Velvetleaf plant response rating (velvetleaf; [6]): 2
- Plant response rating, Velvetleaf (velvetleaf; [7]): 3
- Velvetleaf plant response rating (velvetleaf; [8]): 3
- Morningglory plant response rating (morningglory; [1]): 6
- Morningglory plant response rating (morningglory; [2]): 0
- Morningglory plant response rating (0 to 10 scale) (morningglory; [3]): 0
- Morningglory plant response rating (morningglory; [4]): 0
- Morningglory plant response rating (morningglory; [5]): 2
- Morningglory plant response rating (morningglory; [6]): 3
- Plant response rating, Morningglory (morningglory; [7]): 6
- Morningglory plant response rating (morningglory; [8]): 7
